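Tested at 5 concentrations; 48 h exposure; 96-well plates; endpoints linearly interpolated, else capped at highest concentration. At the GI50, growth is halved. TGI denotes the concentration required for complete inhibition of growth.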 Where a SMILES comes first, the peptide text is derived from it. The star is where a group is joined. Boc = CC(C)(C)OC(=O)*

Holding throughout (assay): NCI anticancer screen, dose series, 48 h
Assay [1] has as its system A498 renal.
In assay [2] the test system is HOP-62 NSCLC.
The subject of assay [3] is HT29 colon.
The subject of assay [4] is SN12C renal.
The subject of assay [5] is UACC-62 melanoma.
Assay [6] has as its system UO-31 renal.
The test system of assay [7] is U251 CNS.
Assay [8] has as its system MDA-MB-435.
Assay [9] relates to HS 578T breast.
Assay [10] relates to NCI/ADR-RES ovarian.

Turning to `CC(=O)C(CN(CC(C)C)CC(C)C)C(c1ccccc1)c1c(O)c2ccccc2oc1=O` (stereo not given), the TGI in assay [1], in assay [2], in [3], in [4] and in assay [5] was > 100 µM throughout.
For the molecule `CCN(CC)CC1c2ccccc2C(CNc2ccccc2)N1C` (stereo not given), the TGI in assay [2], in assay [4], in assay [5] and in [6] was > 100 µM in each case.
Turning to `Fc1ccc(C2SCc3nc4ccccc4n32)c(F)c1` (stereo not given), the TGI in assay [1], in assay [2], in [3], in assay [4], in assay [7] and in assay [5] was > 100 µM each time. For the same molecule, the TGI in assay [6] is > 100 µM.
As for `COC(=O)C1CC2CC(=NNC(N)=O)CC2C1` (stereo not given), the TGI in [1], in assay [2], in [3], in [4], in [7] and in [5] was > 100 µM throughout. Besides, the TGI in assay [6] was > 100 µM.
`CCCP1(=O)C=C(C)C(=C(Cl)Cl)C(C)=C1` (stereo not given): the TGI in assay [1] was > 100 µM; in [2] it was > 100 µM; in assay [3] it was > 100 µM; in assay [4] it was 66.7 µM; in [7], > 100 µM; in assay [5] it was > 100 µM. Further, the TGI in assay [6] is > 100 µM.
With `Cc1c(/C=N/N=C/c2[nH]c(C(=O)OC(C)(C)C)c(C)c2C)[nH]c(C(=O)OC(C)(C)C)c1C`, the TGI in [1], in [2], in assay [3], in [4], in assay [7] and in [5] was > 100 µM throughout. Also, in [6], the TGI was > 100 µM.
For the molecule `COc1ccc(-c2cc(Cc3cccs3)c(=O)[nH]n2)cc1`, the TGI in [3], in [4], in assay [7], in assay [5] and in assay [6] was > 100 µM throughout.
Regarding `CC(=O)Nc1ccc(SC#N)c2c(NC(C)=O)cccc12`, the TGI in [1], in [2], in assay [3], in assay [4], in assay [7] and in assay [5] was > 100 µM in each case. In addition, the TGI in [6] is > 100 µM.
Turning to `CCOC(=O)C1C(=S)NC(=O)C1C#N` (stereo not given), the TGI in [2], in assay [3], in [4], in [7], in assay [5] and in assay [6] was > 100 µM each time.
For `CCCCCCCCCCCCCCCCCC1=NCCN1CCOC1=C(Cl)C(=O)c2ccccc2C1=O`, the GI50 in [1] was 3.92 µM; in assay [2] it was 1.77 µM; in [3] it was 2.58 µM; in assay [8], 2.05 µM; in assay [4], 3.18 µM; in [7] it was 1.87 µM. Besides, the GI50 in assay [5] is 2.12 µM; in [6], 1.37 µM. For the same molecule, the TGI was 14.7 µM in assay [1]; 3.27 µM in [2]; 6.13 µM in assay [3]; 4.02 µM in [8]; 9.47 µM in [4]; 3.67 µM in [7]. In addition, the TGI is 4.99 µM in [5] and 2.77 µM in assay [6].
Consider `CO[C@H]1CC(O[C@@H]2/C(C)=C/C[C@@H]3C[C@@H](C[C@]4(C=C[C@H](C)[C@@H](C5CCCCC5)O4)O3)OC(=O)[C@@H]3C=C(C)[C@@H](O)[C@H]4OC/C(=C\C=C\[C@@H]2C)[C@]43O)O[C@@H](C)C1O[C@H]1C[C@H](OC)[C@@H](O)[C@H](C)O1` (stereo not given in full), for which the GI50 in assay [2] is 1.73 µM; in assay [9], 2.45 µM; in assay [3], 1.87 µM; in [8] it was 1.57 µM; in assay [6] it was 1.4 µM. The TGI in assay [2] was 3.22 µM; in [9], > 100 µM; in assay [3] it was 3.85 µM; in assay [8], 3.13 µM; in assay [6], 2.71 µM.
Consider `Cc1ccc2c(C3Cc4ccccc4N3C(=O)/C=C\C(=O)O)c(C)[nH]c2c1` (stereo not given), for which the TGI was > 100 µM in assay [1]; > 100 µM in [2]; > 100 µM in assay [3]; > 100 µM in [4]; > 100 µM in assay [7]; 97.6 µM in assay [5]. Moreover, in assay [6], the TGI is > 100 µM.
With `Cc1cccc(C)c1NC(=O)/C(=N/NC(N)=S)C(C)C(=O)c1ccc(Cl)cc1` (stereo not given), the TGI in [1], in [2], in [3], in assay [4], in assay [7] and in assay [5] was > 100 µM in each case. Besides, the TGI in assay [6] is > 100 µM.
On to `CC#CCC1CCC(OCC)=CC1=O` (stereo not given), for which the TGI in [2], in assay [3], in [4], in assay [7], in assay [5] and in assay [6] was > 100 µM in each case.
With `COc1ccc(C=O)c([N+](=O)[O-])c1`, the TGI in assay [1] was > 100 µM; in [2], > 100 µM; in assay [3], 63.8 µM; in assay [4], > 100 µM; in assay [7], > 100 µM; in assay [5], > 100 µM. Also, the TGI in [6] is > 100 µM.
For the molecule `Cc1[nH]c2ccccc2c1C(=O)CC1(O)C(=O)Nc2c(Cl)cc(Cl)cc21` (stereo not given), the TGI in [1] was 67.4 µM; in assay [2], > 100 µM; in assay [3] it was > 100 µM; in assay [4] it was 55.6 µM; in assay [7], > 100 µM; in assay [6], 60.9 µM.
Turning to `CC(=O)NC(CCCNC(=O)N(CCCl)N=O)C(=O)NCc1ccccc1` (stereo not given), the TGI in assay [2], in [3], in [4], in [7], in [5] and in assay [6] was > 100 µM each time.
As to `CCC(=O)C12OC3OC(C)(C)OC3C1OC(C)(C)O2` (stereo not given), the TGI in assay [1], in assay [2], in assay [3], in assay [4], in assay [7] and in assay [5] was > 100 µM throughout. In addition, the TGI in assay [6] was > 100 µM.
Turning to `COC(=O)C1(C)CCc2c(OC)ccc(OC)c2C1=O` (stereo not given), the TGI in [2], in assay [4], in [7], in assay [5] and in assay [6] was > 100 µM in each case.
Take `Cc1ccc(/C=C/C(=O)C(C)(C)CN2CCCCC2)cc1`: the TGI in assay [1] worked out at 19.5 µM; in assay [2], 29.5 µM; in assay [3], 12 µM; in assay [4], 15.1 µM; in assay [7], 27.5 µM; in assay [5], 30.3 µM. Besides, in assay [6], the TGI turned out to be 22 µM.
In the case of `O=C1NC(=O)C2C(=O)NC(=O)C1C2c1c(Cl)cccc1Cl` (stereo not given), the TGI in [1], in assay [2], in [3], in assay [4], in assay [7] and in assay [5] was > 100 µM in each case. In addition, in assay [6], the TGI is > 100 µM.
Regarding `COc1ccc2c(c1)C(=O)C1CC(=O)CCC21` (stereo not given), the TGI in [1], in assay [2], in assay [3], in [4], in assay [7] and in assay [5] was > 100 µM in each case. The TGI in [6] was > 100 µM.
For the molecule `O=C1OC(Cc2ccccc2)(N2CCCC2=O)C1c1ccccc1` (stereo not given), the TGI in [1], in assay [2], in assay [3], in assay [4], in assay [7] and in [5] was > 100 µM in each case. Moreover, in [6], the TGI is > 100 µM.
With `COc1cc2c(cc1OCCCn1c(-c3ccccn3)nc3ccccc31)N=C[C@@H]1CCCN1C2=O`, the GI50 in assay [1] is 3.96 µM; in [2], 2.92 µM; in [3] it was 3.61 µM; in assay [8], 1.42 µM; in assay [10], 2.79 µM; in assay [4], 3.05 µM. For the same molecule, the figures for the GI50 in assay [7], in assay [5] and in [6] were 2.37 µM, 1.48 µM and 0.474 µM, respectively. Also, the TGI in assay [1] is 14.5 µM; in assay [2], 9.57 µM; in assay [3] it was > 79.6 µM; in assay [8], 2.91 µM; in assay [10], 7.31 µM; in assay [4] it was 15.1 µM. Moreover, the TGI worked out at 11.4 µM in [7], 3.04 µM in assay [5] and 2.59 µM in assay [6].
Regarding `CC(C)(C)OC(=O)NC(Cc1ccc(O)cc1)C(=O)N1CCCC1C(=O)O` (stereo not drawn) (Boc-Tyr-Pro-OH; configuration not given here), the TGI in assay [1], in [2], in [3], in assay [4], in [7] and in assay [5] was > 100 µM throughout. Also, the TGI in assay [6] was > 100 µM.
`N#CC(=C1C=CC(=NO)C=C1)c1ccc(Cl)cc1`: the TGI in assay [1] was > 100 µM; in assay [2] it was 41.6 µM; in assay [3], 22.9 µM; in assay [4] it was 58.7 µM; in assay [7], 34.3 µM; in assay [5], 21 µM. Further, the TGI in assay [6] worked out at 31.7 µM.
Regarding `Cc1ccc(-c2nnc(-c3nn(-c4ccccc4)c4nc5ccccc5nc34)o2)cc1`, the TGI in [2] was 27.3 µM; in assay [3], > 100 µM; in [4], > 100 µM; in assay [7] it was 59.1 µM; in assay [5] it was 30.8 µM; in [6] it was 39 µM.
In the case of `O=C(/C=C\c1cccc([N+](=O)[O-])c1)/C=C/c1cccc([N+](=O)[O-])c1`, the GI50 is > 100 µM in [1]; 1.4 µM in assay [3]; 2.79 µM in assay [8]; 20.2 µM in [10]; 67 µM in [4]; 2.06 µM in [7]. Besides, the GI50 is 14.8 µM in assay [5] and 1.7 µM in assay [6]. Moreover, the TGI in assay [1] was > 100 µM; in assay [3], 3.32 µM; in [8], 12.4 µM; in assay [10], > 100 µM; in [4], > 100 µM; in assay [7], 5.21 µM. For the same molecule, the TGI in assay [5] was > 100 µM; in assay [6] it was 4.9 µM.
Take `COc1cc2c(c(OC)c1OC)-c1ccc(SC)c(=O)cc1C(NC(=O)c1ccccc1)CC2` (stereo not given): the TGI in assay [1] was 0.435 µM; in assay [2], 21.1 µM; in [9], 5.34 µM; in assay [3], 1.12 µM; in assay [8], < 0.01 µM; in assay [4], 52.6 µM. Moreover, the TGI in assay [7] was 4.18 µM; in assay [5], 36.7 µM; in assay [6] it was > 68.1 µM.
As for `CC/C=C\C/C=C\C/C=C\CCCCCCCC(=O)OCC(O)CO` (stereo not given), the TGI in assay [1] is > 100 µM; in assay [2], > 100 µM; in [3], > 100 µM; in assay [4] it was > 100 µM; in assay [7] it was > 73.7 µM; in [5], > 100 µM. This molecule yielded a TGI in assay [6] of 24.6 µM.
For the molecule `O=C1c2c(c3c4ccccc4[nH]c3c3ccc4ccccc4c23)C(=O)N1CCN1CCNCC1`, the GI50 is 4.19 µM in assay [1]; 1.81 µM in assay [2]; 1.72 µM in assay [3]; 1.67 µM in [8]; 1.68 µM in [4]; 1.64 µM in assay [7]. The GI50 in assay [5] was 1.86 µM; in [6], 1.24 µM. For the same molecule, the TGI amounted to 19.6 µM in assay [1]; 3.69 µM in assay [2]; 3.27 µM in assay [3]; 3.11 µM in [8]; 3.13 µM in [4]; 3.21 µM in assay [7]. Also, the TGI is 3.77 µM in [5] and 2.53 µM in assay [6].
On to `O=C(NC1CCCCC1)NS(=O)(=O)c1ccc2c(c1)CCC2`, for which the TGI in assay [4], in assay [7], in assay [5] and in assay [6] was > 100 µM each time.

The record behind these values is PubChem BioAssay (NCI).
